Values after ≈ are worked out from the molar mass of the structure shown. Active and inactive are the calls of the source. The rule behind the calls is not given here.
Assays:
MAOA = MAOA (Homo sapiens, UniProt P21397); assay: Inhibition of full-length recombinant human MAOA expressed in insect cells at 10 uM using kynuramine as substrate preincubated for 15 mins followed by substrate addition and measured after 60 mins by spectrofluorimetric method relative to control; conditions: probe kynuramine
[1] = target: Prostaglandin G/H synthase 1 (Homo sapiens) (UniProt P23219); assay: Inhibition of human recombinant COX1 expressed in baculovirus infected Sf9 cells at 10 uM using arachidonic acid as substrate preincubated for 15 mins followed by substrate addition and measured after 3 mins by ampliflu red dye-based spectrofluorimetric method relative to control
[2] = target: Histamine H1 receptor (Homo sapiens) (UniProt P35367); assay: Displacement of [3H]pyrilamine from full-length recombinant human H1 receptor expressed in CHOK1 cells at 10 uM measured after 180 mins by scintillation counting method relative to control; assay type: cell-based
[3] = target: Prostaglandin G/H synthase 2 (Homo sapiens) (UniProt P35354); assay: Inhibition of human recombinant COX2 expressed in Sf21 cells at 10 uM using arachidonic acid as substrate preincubated for 15 mins followed by substrate addition and measured after 3 mins by ampliflu red dye-based spectrofluorimetric method relative to control
[4] = target: 5-hydroxytryptamine receptor 2B (Homo sapiens) (UniProt P41595); assay: Displacement of [3H]LSD from full-length recombinant human 5HT2B receptor expressed in CHOK1 cells at 10 uM measured after 60 mins by scintillation counting method relative to control; assay type: cell-based
[5] = target: Tankyrase 1/2 (Homo sapiens) (UniProt Q9H2K2+O95271); assay: Inhibition of TNKS/TNKS2 in human COLO320DM cells assessed as upregulation of AXIN2 expression at 0.1 uM measured after 16 hrs by Western blot analysis relative to G007-LK; assay type: cell-based
[6] = target: Muscarinic acetylcholine receptor M1 (Homo sapiens) (UniProt P11229); assay: Displacement of [3H]N-Methylscopolamine from full-length recombinant human M1 receptor expressed in CHOK1 cells at 10 uM measured after 120 mins by scintillation counting method relative to control; assay type: cell-based
[7] = Toxicity in mouse xenografted with human COLO320DM cells assessed as body weight loss at 150 mg/kg, ip administered twice daily for 11 days; assay type: organism-based; conditions: in vivo, 264 h
Rattus norvegicus = species on record: Rattus norvegicus; assay: Displacement of [3H]batrachotoxinin from Wistar rat brain sodium channel site 2 at 10 uM after 60 mins by scintillation counting analysis relative to control
Homo sapiens = species on record: Homo sapiens; assay: Effect on hippo signaling protein in human COLO320DM cells assessed as change in CTGF expression at 0.033 to 1 uM measured after 48 hrs by RT-PCR analysis; assay type: cell-based
[8] = Cmax in ICR mouse at 50 mg/kg, ip; assay type: ADME, organism-based; design: dose 50 mg/kg, route intraperitoneal; conditions: in vivo
[9] = target: Muscarinic acetylcholine receptor M3 (Homo sapiens) (UniProt P20309); assay: Displacement of [3H]N-Methylscopolamine from full-length recombinant human M3 receptor expressed in CHOK1 cells at 10 uM measured after 120 mins by scintillation counting method relative to control; assay type: cell-based
[10] = target: GABA-A receptor; anion channel (Rattus norvegicus) (UniProt O09028+P15431+P18506+P18508+P19969+P20236+P23574+P23576+P28471+P28473+P30191+P62813+P63079+P63138+Q91ZM7+Q9ES14); assay: Displacement of [3H]flunitrazepam from GABAA receptor in Wistar rat brain at 10 uM measured after 60 mins by scintillation counting method relative to control; assay type: tissue-based
[11] = target: Neuronal acetylcholine receptor; alpha4/beta2 (Homo sapiens) (UniProt P17787+P43681); assay: Displacement of [3H]cytisine from full-length recombinant human alpha4/beta2 nACHR expressed in human SH-SY5Y cells at 10 uM measured after 120 mins by scintillation counting method relative to control; assay type: cell-based
[12] = target: Glucocorticoid receptor (Homo sapiens) (UniProt P04150); assay: Displacement of [3H]dexamethasone from full-length recombinant human glucocorticoid receptor expressed in insect cells at 10 uM measured after 24 hrs by scintillation counting method relative to control
[13] = target: T1, Poly [ADP-ribose] polymerase tankyrase-1 (Homo sapiens, UniProt O95271)
T1 sequence (O95271 whole entry): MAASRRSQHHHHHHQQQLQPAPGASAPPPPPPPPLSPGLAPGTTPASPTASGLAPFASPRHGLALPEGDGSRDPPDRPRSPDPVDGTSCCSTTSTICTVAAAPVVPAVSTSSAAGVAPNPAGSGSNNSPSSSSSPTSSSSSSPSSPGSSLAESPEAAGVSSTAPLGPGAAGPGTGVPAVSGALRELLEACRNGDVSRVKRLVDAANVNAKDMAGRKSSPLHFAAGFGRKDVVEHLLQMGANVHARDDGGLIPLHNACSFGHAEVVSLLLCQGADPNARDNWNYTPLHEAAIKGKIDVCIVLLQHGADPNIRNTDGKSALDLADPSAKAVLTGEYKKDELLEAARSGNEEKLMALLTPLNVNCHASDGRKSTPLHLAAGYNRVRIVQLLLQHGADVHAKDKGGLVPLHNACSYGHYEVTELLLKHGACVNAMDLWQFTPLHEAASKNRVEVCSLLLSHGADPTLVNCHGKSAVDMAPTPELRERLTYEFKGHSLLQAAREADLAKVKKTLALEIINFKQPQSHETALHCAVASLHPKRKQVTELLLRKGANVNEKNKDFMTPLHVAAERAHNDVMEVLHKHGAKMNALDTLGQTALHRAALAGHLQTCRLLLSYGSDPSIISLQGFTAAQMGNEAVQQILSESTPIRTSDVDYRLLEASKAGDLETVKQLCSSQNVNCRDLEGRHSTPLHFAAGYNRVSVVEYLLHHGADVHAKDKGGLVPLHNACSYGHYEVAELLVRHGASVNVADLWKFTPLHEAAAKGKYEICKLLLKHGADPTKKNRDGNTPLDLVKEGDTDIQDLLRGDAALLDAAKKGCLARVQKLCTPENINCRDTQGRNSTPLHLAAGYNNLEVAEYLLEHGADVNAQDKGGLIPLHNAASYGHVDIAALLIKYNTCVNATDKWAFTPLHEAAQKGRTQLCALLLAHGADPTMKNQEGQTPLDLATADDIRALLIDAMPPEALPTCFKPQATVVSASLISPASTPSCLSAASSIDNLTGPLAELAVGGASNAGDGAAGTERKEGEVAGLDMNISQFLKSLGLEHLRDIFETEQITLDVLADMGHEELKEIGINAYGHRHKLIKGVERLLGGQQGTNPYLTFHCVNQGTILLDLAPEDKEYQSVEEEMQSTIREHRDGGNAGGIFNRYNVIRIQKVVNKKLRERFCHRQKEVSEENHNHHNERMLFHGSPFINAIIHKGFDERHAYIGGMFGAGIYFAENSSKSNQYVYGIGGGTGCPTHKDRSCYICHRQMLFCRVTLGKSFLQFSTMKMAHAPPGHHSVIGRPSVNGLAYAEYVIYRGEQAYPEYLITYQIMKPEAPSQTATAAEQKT
Description: Inhibition of recombinant human N-terminal TEV cleavage site-fused/FLAG-poly his-tagged TNKS SAM-PARP domain (1024 to 1327 residues) expressed in Escherichia coli assessed as reduction in auto-PARylation preincubated for 10 mins followed by biotinylated-NAD+ addition and measured after 45 mins by ELISA

physchem = conditions: phosphate buffer, pH 7.4

Prostaglandin G/H synthase 1 (Homo sapiens), sequence (P23219 whole entry): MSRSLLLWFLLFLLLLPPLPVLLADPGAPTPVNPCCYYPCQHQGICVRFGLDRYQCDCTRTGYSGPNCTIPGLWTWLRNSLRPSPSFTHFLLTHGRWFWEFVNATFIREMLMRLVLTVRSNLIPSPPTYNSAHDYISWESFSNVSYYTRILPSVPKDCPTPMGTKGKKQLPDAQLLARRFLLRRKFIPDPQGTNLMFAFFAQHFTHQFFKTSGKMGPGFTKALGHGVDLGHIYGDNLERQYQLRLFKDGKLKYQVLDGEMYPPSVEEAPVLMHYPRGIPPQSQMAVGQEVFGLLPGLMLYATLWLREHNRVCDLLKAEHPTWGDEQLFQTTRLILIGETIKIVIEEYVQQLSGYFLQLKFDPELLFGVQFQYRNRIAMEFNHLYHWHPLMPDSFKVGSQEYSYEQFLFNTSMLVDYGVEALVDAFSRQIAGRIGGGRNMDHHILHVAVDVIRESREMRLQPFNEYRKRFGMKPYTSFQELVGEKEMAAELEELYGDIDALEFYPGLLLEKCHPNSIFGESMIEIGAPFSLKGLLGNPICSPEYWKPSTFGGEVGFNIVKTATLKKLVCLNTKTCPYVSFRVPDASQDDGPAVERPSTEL
Tankyrase 1/2 (Homo sapiens), sequence (Q9H2K2 whole entry, looked up, one chain of several): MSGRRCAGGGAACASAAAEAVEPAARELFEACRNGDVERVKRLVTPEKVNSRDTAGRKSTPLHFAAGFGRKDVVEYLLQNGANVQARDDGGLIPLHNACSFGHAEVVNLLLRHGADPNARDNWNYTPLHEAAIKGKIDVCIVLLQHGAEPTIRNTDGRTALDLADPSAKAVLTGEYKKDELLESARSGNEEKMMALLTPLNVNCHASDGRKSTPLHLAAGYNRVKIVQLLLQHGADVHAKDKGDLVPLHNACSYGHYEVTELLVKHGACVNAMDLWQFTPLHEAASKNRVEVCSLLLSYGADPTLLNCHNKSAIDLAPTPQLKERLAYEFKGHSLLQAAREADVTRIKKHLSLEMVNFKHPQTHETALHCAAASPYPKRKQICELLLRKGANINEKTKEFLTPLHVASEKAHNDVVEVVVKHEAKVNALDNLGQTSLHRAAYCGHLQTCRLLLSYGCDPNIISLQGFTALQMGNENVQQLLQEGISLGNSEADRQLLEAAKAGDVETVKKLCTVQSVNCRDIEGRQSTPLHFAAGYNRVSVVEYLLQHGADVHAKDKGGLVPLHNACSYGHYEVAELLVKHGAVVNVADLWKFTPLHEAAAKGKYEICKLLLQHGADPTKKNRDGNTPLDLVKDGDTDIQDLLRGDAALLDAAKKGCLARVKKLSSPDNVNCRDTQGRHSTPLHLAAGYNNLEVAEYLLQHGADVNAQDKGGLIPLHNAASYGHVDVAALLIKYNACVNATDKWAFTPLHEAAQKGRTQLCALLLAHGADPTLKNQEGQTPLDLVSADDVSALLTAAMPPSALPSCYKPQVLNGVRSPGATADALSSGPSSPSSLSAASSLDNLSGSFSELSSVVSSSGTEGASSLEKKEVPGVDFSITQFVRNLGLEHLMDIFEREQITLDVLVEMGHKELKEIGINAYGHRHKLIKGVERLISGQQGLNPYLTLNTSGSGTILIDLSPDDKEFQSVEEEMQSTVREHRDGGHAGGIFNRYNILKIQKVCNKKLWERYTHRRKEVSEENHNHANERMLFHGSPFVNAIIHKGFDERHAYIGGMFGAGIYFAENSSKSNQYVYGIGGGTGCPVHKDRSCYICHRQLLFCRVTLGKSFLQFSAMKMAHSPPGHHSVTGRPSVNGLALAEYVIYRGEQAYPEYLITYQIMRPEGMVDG
Prostaglandin G/H synthase 2 (Homo sapiens), sequence (P35354 whole entry): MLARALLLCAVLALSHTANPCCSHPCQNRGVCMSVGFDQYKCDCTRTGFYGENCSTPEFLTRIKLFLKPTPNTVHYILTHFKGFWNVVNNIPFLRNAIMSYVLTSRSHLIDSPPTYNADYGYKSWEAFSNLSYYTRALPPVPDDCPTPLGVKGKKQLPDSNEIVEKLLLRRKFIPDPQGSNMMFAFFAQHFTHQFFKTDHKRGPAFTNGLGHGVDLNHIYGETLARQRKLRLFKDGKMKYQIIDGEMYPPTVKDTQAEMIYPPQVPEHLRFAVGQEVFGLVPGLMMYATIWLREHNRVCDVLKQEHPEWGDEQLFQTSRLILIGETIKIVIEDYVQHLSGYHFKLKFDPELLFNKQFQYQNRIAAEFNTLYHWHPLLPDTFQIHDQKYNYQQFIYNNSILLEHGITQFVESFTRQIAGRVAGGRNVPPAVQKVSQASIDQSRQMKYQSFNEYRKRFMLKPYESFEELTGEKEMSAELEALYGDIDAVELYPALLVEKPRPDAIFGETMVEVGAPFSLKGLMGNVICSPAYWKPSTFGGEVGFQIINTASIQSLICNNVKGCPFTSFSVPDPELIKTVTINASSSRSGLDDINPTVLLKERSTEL
5-hydroxytryptamine receptor 2B (Homo sapiens), sequence (P41595 whole entry): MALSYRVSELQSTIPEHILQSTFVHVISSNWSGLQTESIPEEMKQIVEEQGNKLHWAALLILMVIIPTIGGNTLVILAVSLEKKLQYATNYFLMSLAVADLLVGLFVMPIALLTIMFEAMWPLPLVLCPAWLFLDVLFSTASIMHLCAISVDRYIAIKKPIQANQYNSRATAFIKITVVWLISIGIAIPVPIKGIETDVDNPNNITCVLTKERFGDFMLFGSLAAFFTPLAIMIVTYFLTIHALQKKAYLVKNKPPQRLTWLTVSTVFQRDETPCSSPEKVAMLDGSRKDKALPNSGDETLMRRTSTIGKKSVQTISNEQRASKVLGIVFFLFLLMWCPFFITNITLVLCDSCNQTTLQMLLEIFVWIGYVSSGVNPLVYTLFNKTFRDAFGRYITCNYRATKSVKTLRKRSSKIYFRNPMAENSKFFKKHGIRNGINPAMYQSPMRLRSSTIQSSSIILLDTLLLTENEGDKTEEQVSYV
Glucocorticoid receptor (Homo sapiens), sequence (P04150 whole entry): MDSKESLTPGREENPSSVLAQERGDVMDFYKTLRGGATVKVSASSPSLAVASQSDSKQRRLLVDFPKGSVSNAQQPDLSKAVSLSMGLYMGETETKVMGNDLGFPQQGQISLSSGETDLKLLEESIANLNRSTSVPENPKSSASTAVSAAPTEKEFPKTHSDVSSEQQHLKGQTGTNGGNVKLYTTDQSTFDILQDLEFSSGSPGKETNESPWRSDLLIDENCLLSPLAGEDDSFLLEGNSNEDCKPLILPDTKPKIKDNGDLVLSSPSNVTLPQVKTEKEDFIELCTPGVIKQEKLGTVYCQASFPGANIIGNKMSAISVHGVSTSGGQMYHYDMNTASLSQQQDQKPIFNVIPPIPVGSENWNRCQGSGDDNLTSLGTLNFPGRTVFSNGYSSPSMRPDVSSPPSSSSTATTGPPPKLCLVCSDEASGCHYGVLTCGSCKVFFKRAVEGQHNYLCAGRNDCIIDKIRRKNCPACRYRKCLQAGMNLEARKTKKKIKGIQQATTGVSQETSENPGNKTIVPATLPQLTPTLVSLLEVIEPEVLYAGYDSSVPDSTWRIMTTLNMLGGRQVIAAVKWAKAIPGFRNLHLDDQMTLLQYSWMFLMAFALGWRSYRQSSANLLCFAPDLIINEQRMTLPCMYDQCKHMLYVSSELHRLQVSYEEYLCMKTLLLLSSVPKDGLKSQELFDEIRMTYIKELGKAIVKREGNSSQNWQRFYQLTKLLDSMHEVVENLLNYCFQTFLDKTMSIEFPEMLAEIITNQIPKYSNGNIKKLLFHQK
Histamine H1 receptor (Homo sapiens), sequence (P35367 whole entry): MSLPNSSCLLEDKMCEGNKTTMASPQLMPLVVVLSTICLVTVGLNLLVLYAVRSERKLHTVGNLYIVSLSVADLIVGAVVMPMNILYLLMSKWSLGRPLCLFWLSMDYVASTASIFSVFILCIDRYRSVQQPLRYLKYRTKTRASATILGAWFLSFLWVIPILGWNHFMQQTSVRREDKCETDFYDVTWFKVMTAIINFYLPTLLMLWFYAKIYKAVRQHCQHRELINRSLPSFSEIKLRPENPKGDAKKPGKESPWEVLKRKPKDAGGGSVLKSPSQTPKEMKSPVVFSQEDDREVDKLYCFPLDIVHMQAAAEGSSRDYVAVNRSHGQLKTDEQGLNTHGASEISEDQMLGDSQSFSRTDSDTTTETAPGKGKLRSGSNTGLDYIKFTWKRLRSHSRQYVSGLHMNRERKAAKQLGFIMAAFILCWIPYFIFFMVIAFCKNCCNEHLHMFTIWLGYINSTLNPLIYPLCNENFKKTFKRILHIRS
MAOA, sequence (P21397 whole entry): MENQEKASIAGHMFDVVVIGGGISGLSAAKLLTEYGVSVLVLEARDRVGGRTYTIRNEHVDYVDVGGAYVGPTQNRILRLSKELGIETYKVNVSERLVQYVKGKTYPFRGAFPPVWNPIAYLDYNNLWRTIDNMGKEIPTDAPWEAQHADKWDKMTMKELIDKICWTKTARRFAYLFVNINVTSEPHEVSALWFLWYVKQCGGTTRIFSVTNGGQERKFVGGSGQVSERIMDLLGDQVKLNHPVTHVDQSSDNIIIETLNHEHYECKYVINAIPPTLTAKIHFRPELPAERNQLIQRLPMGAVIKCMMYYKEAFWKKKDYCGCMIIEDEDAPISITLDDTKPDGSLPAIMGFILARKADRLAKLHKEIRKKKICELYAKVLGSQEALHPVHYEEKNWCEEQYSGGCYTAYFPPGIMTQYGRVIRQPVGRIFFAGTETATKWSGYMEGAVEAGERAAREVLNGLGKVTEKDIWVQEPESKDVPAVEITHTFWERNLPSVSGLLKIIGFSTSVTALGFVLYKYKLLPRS

| Structure (SMILES) | inhibition at 1 h, 10 µM (MAOA) [%] | inhibition [1] [%] | inhibition [2] [%] | inhibition [3] [%] | inhibition [4] [%] | fold change (FC) [5] | inhibition [6] [%] | Activity [7] | inhibition (Rattus norvegicus) [%] | Activity (Homo sapiens) | Cmax [8] [µM] | inhibition [9] [%] | inhibition [10] [%] | inhibition [11] [%] | inhibition [12] [%] | IC50 [13] [µM] | solubility at 1 h, 200 µM (physchem) [µg/mL] |
| --- | --- | --- | --- | --- | --- | --- | --- | --- | --- | --- | --- | --- | --- | --- | --- | --- | --- |
| O=c1[nH]c(N2CCC3(CC2)CN(CCO)c2cc(F)cc(F)c23)nc2c1CCCC2 | > 20 | > 20 | > 20 | > 20 | > 20 | 4.42 | > 20 | Non-Toxic | > 20 | inactive | 199 | > 20 | > 20 | > 20 | > 20 |  |  |
| COc1ccccc1N1CCN(c2nc3c(c(=O)[nH]2)CCCC3)CC1 |  |  |  |  |  |  |  |  |  |  |  |  |  |  |  | 0.0205 | 10 (≈ 29.4 µM) |
